Experimental data from patent US4782074A (priority 1987, dated 1988).

Experiments:
Assay type in all cases: in vivo
[1] = tested on: Plasmopara viticola; experiment: Grape Downy Mildew control (Example E); conditions: detached grape leaves, cultivar Emperor, relative to untreated check plants, read-out: % Control GDM
Procedure: The compounds of the invention were tested for the control of the Grape Downy Mildew organism Plasmopara viticola. Detached leaves, between 70 mm and 85 mm in diameter, 7-week-old Vitis vinifera cultivar Emperor grape seedlings were used as hosts. The leaves were sprayed with a 250-ppm solution of the test compound in acetone. The sprayed leaves were dried, inoculated with a spore suspension of the organism, placed in a humid environmental chamber and incubated at 66° F. to 68° F. and about 100% relative humidity. After incubation for 2 days, the plants were then held in a greenhouse 7 to 9 days; then the amount of disease control was determined. The percent disease control provided by a given test compound was based on the percent disease reduction relative to untreated check plants.

[2] = tested on: Piricularia oryzae; experiment: whole plant or invertebrate; conditions: Pyricularia oryzae, read-out: % Control RB
[3] = tested on: Erysiphe polygoni; experiment: Bean Powdery Mildew control (Example A); conditions: 240 h, seedling bean plants, inoculated 1 day after spray, 10 days, relative to untreated check plants, read-out: % Control BPM
Procedure: The compounds of the invention were tested for the control of the Bean Powdery Mildew organism Erysiphe polygoni. Seedling bean plants were sprayed with a 250-ppm solution of the test compound in acetone, water and a nonionic emusifier. The sprayed plants were then inoculated 1 day later with the organism. The plants were maintained for 10 days at temperatures of 68° F. at night with daytime temperatures of 72° F. to 80° F.; relative humidity was maintained at 40% to 60%. The percent disease control provided by a given test compound was based on the percent disease reduction relative to the untreated check plants.

[4] = tested on: Septoria apii; experiment: whole plant or invertebrate; conditions: 336 h, read-out: % Control CLB
[5] = tested on: Alternaria solani conidia; experiment: Tomato Early Blight control (Example D); conditions: 288 h, tomato seedlings, Bonny Best, inoculated 1 day after spray, relative to untreated check plants, read-out: % Control TEB
Procedure: Compounds of the invention were tested for the control of the Tomato Early Blight organism Alternaria solani conidia. Tomato (variety Bonny Best) seedlings of 6- to 7-weeks old were used. The tomato plants were sprayed with a 250-ppm solution of the test compound in an acetone-and-water solution containing a small amount of a nonionic emulsifier. The sprayed plants were inoculated 1 day later with the organism, placed in the environmental chamber and incubated at 66° F. to 68° F. and 100% relative humidity for 24 hours. Following the incubation, the plants were maintained in a greenhouse for about 12 days. Percent disease control was based on the percent disease development on untreated check plants.

[6] = tested on: Uromyces phaseoli tipica; experiment: Leaf Rust / Bean Rust control (Example F); conditions: 336 h, pinto bean plants, rated after about 14 days, relative to untreated check plants, read-out: % Control BR
Procedure: The Leaf Rust test was made using pinto beans. The pathogen was Uromyces phaseoli tipica. The pinto bean plants were sprayed with a 250-ppm solution of the test compound in an acetone-water mixture containing a nonionic emulsifier. The treated plants were inoculated thereafter with the pathogen and then incubated in an environmental chamber for approximately 20 hours at 100% relative humidity and a temperature of 68° F. to 70° F. The plants were then removed from the chamber, allowed to dry, and then maintained in a greenhouse at a 60% to 80% relative humidity. The rate of infection on the leaves was made after about 14 days. The percent disease control provided by a given test compound was based on the percent disease reduction relative to untreated check plants.

[7] = tested on: Phytophthora infestans; experiment: whole plant or invertebrate; conditions: in Solanum lycopersicum, 168 h, read-out: % Control TLB

Compound	pest or weed control at 250 ppm [1] [%]	pest or weed control at 625 ppm [2] [%]	pest or weed control at 250 ppm [3] [%]	pest or weed control at 250 ppm [4] [%]	pest or weed control at 250 ppm [5] [%]	pest or weed control at 250 ppm [6] [%]	pest or weed control at 250 ppm [7] [%]
CCCN(CCOc1c(Cl)cc(Cl)cc1Cl)C(=S)c1cccnc1 [Compound 17, N-(n-propyl), N-(3-pyridylthiocarbonyl)ethanolamine 2,4,6-trichlorophenylether]	4	100	100	62	87	0	0
CCN(CCOc1c(Cl)cc(Cl)cc1Cl)C(=O)c1cccnc1 [Compound 35]	41	96	100	98	30	0	0
CCCN(CCOc1c(Cl)cc(Cl)cc1Cl)C(=O)c1cnccn1 [Compound 3, N-(n-propyl), N-(2-pyrazinylcarbonyl)ethanolamine 2,4,6-trichlorophenylether]	13	75	100	62	94	19	0
CCCN(CCOc1c(Cl)cc(Cl)cc1Cl)C(=O)c1cncn1C [Compound 12, N-(n-propyl), N-(1-methyl-5-imidazolylcarbonyl)ethanolamine 2,4,6-trichlorophenylether]	19	0	100	45	36	29	18
O=C(c1cnccn1)N(CCO)CCOc1c(Cl)cc(Cl)cc1Cl [Compound 31]	29	0	0	0	42	0	0
CCCN(CC(C)Cc1ccc(C(C)(C)C)cc1)C(=O)c1cccnc1 (stereo not shown) [Compound 23]	0	0	100	29	33	0	7
CCCN(CCOc1c(Cl)cc(Cl)cc1Cl)C(=O)c1ccncc1 [Compound 10]	9	0	0	0	32	29	11
CCOCCN(CCOc1c(Cl)cc(Cl)cc1Cl)C(=O)c1cnccn1 [Compound 34]	7	38	0	15	0	0	0
CCCN(CCCc1c(Cl)cccc1Cl)C(=O)c1cnccn1 [Compound 25]	0	0	28	8	29	0	0
CCCN(CCOc1c(Cl)cc(Cl)cc1Cl)C(=O)c1ccccn1 [Compound 9]	19	10	0	9	0	50	0
CCCN(Cc1c(Cl)cccc1Cl)C(=O)c1cnccn1 [Compound 28]	3	0	92	30	27	7	4
CCCN(CCOc1c(C)cc(C)cc1C)C(=O)c1cnccn1 [Compound 15]	0	29	44	15	67	0	0
CCCN(CC(C)Cc1ccc(C(C)(C)C)cc1)C(=O)c1cnccn1 (stereo not shown) [Compound 24]	7	0	72	17	8	0	4
